# Laboratory results taken from patent US20100099710A1, “SRC FAMILY KINASE INHIBITORS” (priority 2007, published 2010).
# Columns and labels:
# [1] = test system: Collagen induced arthritis; experiment: Collagen induced arthritis (CIA), rats; type: in vivo; conditions: 5 mg/kg p.o.
# From the text: (§1) Collagen induced arthritis is a commonly used and widely accepted arthritis model. Immunologically, the model is dominated by a Th1 response; it is antigen specific and depends on both the B- and T-cell response. This model is responsive to most therapies effective in rheumatoid arthritis in humans except NSAIDs.
# (§2) Starting from 21 days after the induction of CIA, the mice were weighed twice a week and the inflammation of the four paws was graded from 0 to 4: • 0: Normal • 1: Swelling of 1-2 toe joints or swelling of metatarsus/metacarpus without swelling of toe joints. • 2: Swelling of >2 toe joints or swelling of toe joints and metatarsus/metacarpus • 3: Severe swelling of the paw including metatarsus/metacarpus • 4: Very severe swelling of the paw resulting in chapped skin. The animals are euthanised. The sum of the scores from the four paws is reported as the arthritis score for each mouse. The maximum score obtainable is therefore 16.
# (§3) The area under curve (AUC) of the arthritis score was calculated for all mice and used as a disease index. The treatment effect (inhibitory effect) of the compounds is calculated as:
# (§4) 1−(AUCtreatment group)/(AUCvehicle group)
# Lewis inbred rats (Harlan), 6 females per group, approximately 11 weeks old were immunised intradermally (i.d.) at the base of the tail with 200 μl of CII emulsion (1 mg/ml) in incomplete Freunds adjuvant (FIA). The rats were re-immunised 10 days later with 50 μl of CII emulsion (1 mg/ml) in FIA. From day 12 the inflammation of each paw was graded and calculated as described for the mouse model. The test-compound was administrated orally from day 10 or from day 14. The last day of treatment was the day before the end of the experiment.
# [2] = test system: Collagen induced arthritis; experiment: Collagen induced arthritis (CIA), mice; type: in vivo; conditions: 3 mg/kg p.o.
# Description: as §1
# In order to induce arthritis, the mice were immunised intradermally (i.d.) at the base of the tail with 100 μl of CII emulsion (2 mg/ml) in FCA (2 mg/ml of M. tuberculosis). The mice were re-immunised i.d. 21 days later with 100 μl of CII emulsion (1 mg/ml) in FIA. The test compound was administrated once daily from the initiation of treatment to the day before the end of the experiment.
# as §2, §3, §4
# The medians of the AUC from all groups were compared using the Kruskal-Wallis test. When P<0.05 in the Kruskal-Wallis test, the Mann Whitney test was used to compare the AUCs for individual mice in drug treated groups with the AUC for mice in the control group which were treated with vehicle (significance level P<0.05).
# [3] = Table 7, first experiment, printed treated from day 10
# [4] = Table 7, first experiment, treated from day 10
# [5] = Table 8, second experiment, treated from day 10
# [6] = Table 8, second experiment, treated from day 14
smiles,measurement,setting,value
C[C@]12C=CC(=O)C=C1CC[C@@H]1[C@@H]2[C@@H](O)C[C@@]2(C)[C@H]1CC[C@]2(O)C(=O)CO [Prednisolone],"AUC of arthritis score, Average",[1]; [3],9
same,Percent of vehicle control (group 1),[1]; [3],−74%
same,"AUC of arthritis score, Average",[1]; [4],0.2
same,Percent of vehicle control (group 1),[1]; [4],−100%
same,"AUC of arthritis score, Average",[1]; [5],0
same,Percent of vehicle control (group 1),[1]; [5],−−100%
same,"AUC of arthritis score, Average",[1]; [6],8
same,Percent of vehicle control (group 1),[1]; [6],−78%
same,"AUC of arthritis score, Average",[2]; Table 5,27
same,Percent of vehicle control (group 1),"[2]; Table 5, vehicle day 10",−84%
same,"AUC of arthritis score, Average",[2]; Table 6,27
same,Percent of vehicle control (group 1),"[2]; Table 6, vehicle day 28",−78%
